In ChEMBL document CHEMBL6153137, “Design, Synthesis, and Biological Evaluation of Novel Orally Available Covalent CDK12/13 Dual Inhibitors for the Treatment of Tumors” (J Med Chem, 2025):
≈ marks a conversion by molar mass, not a printed value.

What was measured:
[1] = biological target: Cyclin-dependent kinase 13/Cyclin-K (Homo sapiens, UniProt Q14004); experiment: Inhibition of CDK13/Cyclin K (unknown origin) using pS7-CTD peptide and ATP as substrate incubated for 120 mins by ADP-Glo reagent based luminescence analysis; type: protein-complex assay
SUM149PT = experiment: Antiproliferative activity against human SUM149PT cells assessed as inhibition of cell growth incubated for 7 days by CellTiter-Glo reagent based luminescence analysis; type: functional; conditions: 168 h
CDK12/Cyclin K = CDK12/Cyclin K (Homo sapiens, UniProt Q9NYV4); experiment: Inhibition of CDK12/Cyclin K (unknown origin) using pS7-CTD peptide and ATP as substrate incubated for 120 mins by ADP-Glo reagent based luminescence analysis; type: protein-complex assay
[2] = Permeability of the compound in human Caco-2 cells at 2 uM incubated for 2 hrs by LC-MS/MS analysis; type: ADME, cell-based; conditions: read-out: permeability
[3] = GSH reactivity assessed as half life to adduct formation at 0.1 uM by LC-MS/MS analysis; type: physicochemical
[4] = GSH reactivity assessed as half life to adduct formation at 1 uM by LC-MS/MS analysis; type: physicochemical
[5] = GSH reactivity assessed as half life to adduct formation at 10 uM by LC-MS/MS analysis; type: physicochemical
[6] = Volume of distribution at steady state in CD-1 mouse at 1 mg/kg, iv measured for 24 hrs by LC-MS/MS analysis; type: ADME, organism-based; conditions: in vivo, read-out: Vdss
[7] = Kinetic solubility of the compound in phosphate buffer at pH 7.4 measured after 24 hrs by HPLC-UV analysis; type: physicochemical; conditions: read-out: Kinetic_solubility
[8] = Protein binding in human plasma assessed as free fraction at 400 uM incubated for 4 hrs by equilibrium dialysis method based LC-MS/MS analysis; type: ADME, cell-free
[9] = Protein binding in mouse plasma assessed as free fraction at 400 uM incubated for 4 hrs by equilibrium dialysis method based LC-MS/MS analysis; type: ADME, cell-free
[10] = Toxicity against Balb/c mouse xenografted with human SUM149PT cells assessed as reduction in body weight at 20 mg/kg, po administered once daily via gavage for 2 days and measured after second dose; type: organism-based; design: scale not given: the % may be the effect or the level left; conditions: in vivo, 48 h, time 2 day
[11] = Clearance in CD-1 mouse at 1 mg/kg, iv measured for 24 hrs by LC-MS/MS analysis; type: ADME, organism-based; conditions: in vivo
[12] = AUC (0 to infinity) in CD-1 mouse at 1 mg/kg, iv by LC-MS/MS analysis; type: ADME, organism-based; conditions: in vivo
[13] = Half life in CD-1 mouse at 5 mg/kg, po measured for 24 hrs by LC-MS/MS analysis; type: ADME, organism-based; conditions: in vivo
[14] = Cmax in CD-1 mouse at 5 mg/kg, po measured for 24 hrs by LC-MS/MS analysis; type: ADME, organism-based; conditions: in vivo
[15] = AUC (0 to infinity) in CD-1 mouse at 5 mg/kg, po by LC-MS/MS analysis; type: ADME, organism-based; conditions: in vivo
[16] = Oral bioavailability in CD-1 mouse at 5 mg/kg measured for 24 hrs by LC-MS/MS analysis; type: ADME, organism-based; conditions: in vivo

Chain of CDK12/Cyclin K (O75909 whole entry): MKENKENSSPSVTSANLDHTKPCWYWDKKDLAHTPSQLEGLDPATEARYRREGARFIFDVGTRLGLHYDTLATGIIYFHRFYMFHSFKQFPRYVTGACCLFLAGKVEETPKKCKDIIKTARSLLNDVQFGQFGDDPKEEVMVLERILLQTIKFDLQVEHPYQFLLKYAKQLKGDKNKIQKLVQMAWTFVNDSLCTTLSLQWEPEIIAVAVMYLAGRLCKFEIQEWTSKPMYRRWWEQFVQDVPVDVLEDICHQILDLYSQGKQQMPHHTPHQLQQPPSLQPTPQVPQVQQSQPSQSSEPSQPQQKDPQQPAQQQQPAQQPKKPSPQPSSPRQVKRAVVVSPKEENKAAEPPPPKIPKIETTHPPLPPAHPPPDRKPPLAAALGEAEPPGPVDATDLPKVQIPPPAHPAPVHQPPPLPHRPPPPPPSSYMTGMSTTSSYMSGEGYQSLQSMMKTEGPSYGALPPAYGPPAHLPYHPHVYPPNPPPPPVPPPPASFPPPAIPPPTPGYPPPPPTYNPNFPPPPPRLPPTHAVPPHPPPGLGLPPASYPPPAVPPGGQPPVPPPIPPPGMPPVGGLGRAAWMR
Chain of CDK12/Cyclin K (Q9NYV4 whole entry): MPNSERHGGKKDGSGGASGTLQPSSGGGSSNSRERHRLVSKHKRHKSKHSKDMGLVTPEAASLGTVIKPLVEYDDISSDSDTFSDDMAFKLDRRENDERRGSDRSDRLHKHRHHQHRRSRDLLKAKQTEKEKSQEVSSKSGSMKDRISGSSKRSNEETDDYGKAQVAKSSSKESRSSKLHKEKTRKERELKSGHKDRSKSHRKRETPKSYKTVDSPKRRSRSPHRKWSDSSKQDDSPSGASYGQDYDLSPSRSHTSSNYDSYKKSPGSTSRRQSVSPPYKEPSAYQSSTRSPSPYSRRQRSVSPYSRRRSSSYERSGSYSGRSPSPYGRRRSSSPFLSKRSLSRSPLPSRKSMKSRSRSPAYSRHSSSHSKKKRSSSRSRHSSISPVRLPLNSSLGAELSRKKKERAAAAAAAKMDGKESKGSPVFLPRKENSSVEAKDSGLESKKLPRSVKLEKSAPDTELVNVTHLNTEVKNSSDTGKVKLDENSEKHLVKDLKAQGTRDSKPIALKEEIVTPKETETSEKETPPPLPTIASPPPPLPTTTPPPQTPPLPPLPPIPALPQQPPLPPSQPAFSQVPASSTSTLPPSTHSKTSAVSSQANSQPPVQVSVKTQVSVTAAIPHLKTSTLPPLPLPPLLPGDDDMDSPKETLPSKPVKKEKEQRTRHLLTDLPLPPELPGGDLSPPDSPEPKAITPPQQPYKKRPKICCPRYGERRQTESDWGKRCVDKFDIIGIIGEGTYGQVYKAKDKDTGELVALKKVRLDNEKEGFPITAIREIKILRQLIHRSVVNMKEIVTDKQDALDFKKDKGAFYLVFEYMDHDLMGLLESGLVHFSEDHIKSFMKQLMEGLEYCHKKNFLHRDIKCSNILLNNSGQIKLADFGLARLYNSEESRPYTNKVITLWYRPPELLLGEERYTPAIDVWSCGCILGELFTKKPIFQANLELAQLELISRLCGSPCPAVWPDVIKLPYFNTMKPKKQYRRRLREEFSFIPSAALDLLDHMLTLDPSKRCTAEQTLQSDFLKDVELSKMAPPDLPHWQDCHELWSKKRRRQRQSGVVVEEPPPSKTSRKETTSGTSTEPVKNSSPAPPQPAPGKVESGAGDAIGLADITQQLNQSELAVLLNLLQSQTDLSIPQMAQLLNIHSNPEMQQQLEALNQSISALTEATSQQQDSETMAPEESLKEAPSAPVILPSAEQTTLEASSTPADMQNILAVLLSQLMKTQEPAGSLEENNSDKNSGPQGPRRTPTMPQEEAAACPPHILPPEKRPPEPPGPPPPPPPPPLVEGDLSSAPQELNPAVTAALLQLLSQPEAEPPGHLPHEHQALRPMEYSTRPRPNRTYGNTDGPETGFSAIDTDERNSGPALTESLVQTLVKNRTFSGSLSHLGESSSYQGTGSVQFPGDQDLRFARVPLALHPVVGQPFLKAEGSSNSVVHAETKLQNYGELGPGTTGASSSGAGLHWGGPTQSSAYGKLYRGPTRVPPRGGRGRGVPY
Chain of Cyclin-dependent kinase 13/Cyclin-K (Q14004 whole entry): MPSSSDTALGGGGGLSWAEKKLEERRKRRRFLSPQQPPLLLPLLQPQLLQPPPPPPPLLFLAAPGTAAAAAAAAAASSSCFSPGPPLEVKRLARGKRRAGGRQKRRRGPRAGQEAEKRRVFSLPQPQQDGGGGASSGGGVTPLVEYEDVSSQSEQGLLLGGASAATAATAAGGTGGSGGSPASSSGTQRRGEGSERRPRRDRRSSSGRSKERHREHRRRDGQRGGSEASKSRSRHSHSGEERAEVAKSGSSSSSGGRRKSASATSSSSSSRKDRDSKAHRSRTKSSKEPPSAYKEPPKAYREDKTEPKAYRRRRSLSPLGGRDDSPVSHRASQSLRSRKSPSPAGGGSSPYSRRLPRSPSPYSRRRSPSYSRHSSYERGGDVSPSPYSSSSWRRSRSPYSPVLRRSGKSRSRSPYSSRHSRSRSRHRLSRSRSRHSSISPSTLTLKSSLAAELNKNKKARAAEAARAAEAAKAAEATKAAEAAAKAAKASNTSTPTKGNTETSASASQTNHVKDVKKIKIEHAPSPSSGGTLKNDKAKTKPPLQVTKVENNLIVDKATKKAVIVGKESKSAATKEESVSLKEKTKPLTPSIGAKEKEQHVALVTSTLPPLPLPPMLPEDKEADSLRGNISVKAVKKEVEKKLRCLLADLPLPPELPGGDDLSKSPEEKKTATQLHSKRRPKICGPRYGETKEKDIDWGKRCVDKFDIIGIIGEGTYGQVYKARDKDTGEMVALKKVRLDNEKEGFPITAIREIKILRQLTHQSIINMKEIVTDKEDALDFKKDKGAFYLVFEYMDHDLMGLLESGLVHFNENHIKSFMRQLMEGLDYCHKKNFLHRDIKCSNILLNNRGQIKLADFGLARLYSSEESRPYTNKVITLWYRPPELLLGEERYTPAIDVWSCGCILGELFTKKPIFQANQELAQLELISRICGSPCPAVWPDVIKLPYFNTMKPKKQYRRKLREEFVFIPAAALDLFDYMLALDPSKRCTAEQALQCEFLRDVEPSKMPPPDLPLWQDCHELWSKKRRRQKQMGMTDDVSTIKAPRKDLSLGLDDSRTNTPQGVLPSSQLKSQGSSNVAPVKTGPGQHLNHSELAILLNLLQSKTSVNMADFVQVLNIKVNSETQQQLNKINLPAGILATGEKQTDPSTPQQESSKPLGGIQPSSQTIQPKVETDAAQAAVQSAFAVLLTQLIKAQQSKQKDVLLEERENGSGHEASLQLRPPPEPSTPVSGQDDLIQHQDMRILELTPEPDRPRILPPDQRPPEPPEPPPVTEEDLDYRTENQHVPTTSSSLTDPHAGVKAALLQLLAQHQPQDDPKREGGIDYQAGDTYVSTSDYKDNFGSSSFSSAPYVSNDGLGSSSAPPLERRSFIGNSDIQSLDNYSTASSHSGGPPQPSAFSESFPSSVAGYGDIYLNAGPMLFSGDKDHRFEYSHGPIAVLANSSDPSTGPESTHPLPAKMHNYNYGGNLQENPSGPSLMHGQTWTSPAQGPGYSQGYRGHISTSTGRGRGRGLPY
Chain of Cyclin-dependent kinase 13/Cyclin-K (O75909 whole entry, further chain): as the sequence (O75909 whole entry) above

Row | SMILES | IC50 [1] | IC50 (CDK12/Cyclin K) | IC50 (SUM149PT) | further results
1 | C=CC(=O)N1CCc2c(nc(N3CCCC3=O)nc2N2CC[C@@H](Nc3ncc(Cl)c(OC)n3)C2)C1 | 198 nM | – | 457 nM | –
2 | C=CC(=O)N1CCc2c(nc(N3CCOCC3)nc2N2CC[C@@H](Nc3ncc(Cl)c(OC)n3)C2)C1 | 165 nM | – | 532 nM | –
3 | C=CC(=O)N1CCc2c(nc(N3CCN(C)C(=O)C3)nc2N2CC[C@@H](Nc3ncc(Cl)c(OC)n3)C2)C1 | – | – | 276 nM | –
4 | CC#CC(=O)N1CCc2c(ncnc2N2CC[C@@H](Nc3ncc(Cl)c(OC)n3)C2)C1 | 235 nM | – | 226 nM | t1/2 [3]: 315.5 min; t1/2 [4]: 324.4 min; t1/2 [5]: 379.4 min; clearance [11]: 179 mL/min/kg; Vd [6]: 0.35 L/kg; AUC(0-inf) [12]: 93.8 ng·h/mL; half-life [13]: 15 min; Cmax [14]: 101 ng/mL; AUC(0-inf) [15]: 54.7 ng·h/mL; bioavailability [16]: 11.2%
5 | C=CC(=O)N1CCc2c(nc(C)nc2N2CC[C@@H](Nc3ncc(Cl)c(OC)n3)C2)C1 | 74.8 nM | – | 155 nM | –
6 | C=CC(=O)N1CCc2c(nc(OC)nc2N2CC[C@@H](Nc3ncc(Cl)c(OC)n3)C2)C1 | 95.4 nM | – | 336 nM | –

Second part, led by results:

Row | IC50 [1] | IC50 (CDK12/Cyclin K) | SMILES | IC50 (SUM149PT) | further results
7 | 107 nM | – | C=CC(=O)N1CCc2c(ccnc2N2CC[C@@H](Nc3ncc(Cl)c(OC)n3)C2)C1 | 317 nM | –
8 | 756 nM | 669 nM | C=CC(=O)N1CC2(CCC(C(=O)N3CC[C@@H](Nc4ncc(Cl)c(OC)n4)C3)CC2)C1 | – | –
9 | 1760 nM | 2270 nM | C=CC(=O)N1CCC(C(=O)N2CC[C@@H](Nc3ncc(Cl)c(OC)n3)C2)CC1 | – | –
10 | 9.22 nM | 6.9 nM | C=CC(=O)Nc1ccc(C(=O)N2CC[C@@H](Nc3ncc(Cl)c(OC)n3)C2)cc1 | 2.64 nM | Papp at 2 h, 2 µM [2]: 2.87 ×10⁻⁶ cm/s; t1/2 [3]: 39.7 min; t1/2 [4]: 40.2 min; t1/2 [5]: 43 min; Vd [6]: 0.66 L/kg; solubility kinetic at 24 h [7]: 48.2 µg/mL (≈ 120 µM); fraction unbound at 4 h, 400 µM [8]: 0.003; fraction unbound at 4 h, 400 µM [9]: 0.038; Activity [10]: 10%
11 | 76.1 nM | – | C=CC(=O)N1Cc2ccnc(N3CC[C@@H](Nc4ncc(Cl)c(OC)n4)C3)c2C1 | – | –
12 | 2740 nM | 3740 nM | C=CC(=O)[C@H]1CC[C@H](C(=O)N2CC[C@@H](Nc3ncc(Cl)c(OC)n3)C2)CC1 | – | –
13 | 343 nM | – | C=CC(=O)N1Cc2ncnc(N3CC[C@@H](Nc4ncc(Cl)c(OC)n4)C3)c2C1 | 509 nM | –
14 | 2750 nM | 2410 nM | C=CC(=O)NC12CC(C(=O)N3CC[C@@H](Nc4ncc(Cl)c(OC)n4)C3)(C1)C2 | – | –
